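Values below derive from 48-hour exposures of cells grown in 96-well plates, with endpoints linearly interpolated between the two concentrations bracketing the appropriate inhibition level. Abbreviation: GI50, concentration required for 50% inhibition of growth. TGI marks complete inhibition of growth.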
Experiments:
Assay in all cases: NCI anticancer screen, dose series, 48 h
HL-60(TB) leukemia = system: HL-60(TB) leukemia
LOX IMVI melanoma = system: LOX IMVI melanoma
NCI-H460 lung = system: NCI-H460 lung
SK-MEL-5 melanoma = system: SK-MEL-5 melanoma
SK-OV-3 ovarian = system: SK-OV-3 ovarian
U251 CNS = system: U251 CNS
UACC-62 melanoma = system: UACC-62 melanoma
UO-31 renal = system: UO-31 renal
MCF7 breast = system: MCF7 breast
NCI/ADR-RES ovarian = system: NCI/ADR-RES ovarian

SMILES | TGI (HL-60(TB) leukemia) [µM] | TGI (LOX IMVI melanoma) [µM] | TGI (NCI-H460 lung) [µM] | TGI (SK-MEL-5 melanoma) [µM] | TGI (SK-OV-3 ovarian) [µM] | TGI (U251 CNS) [µM] | TGI (UACC-62 melanoma) [µM] | TGI (UO-31 renal) [µM] | TGI (MCF7 breast) [µM] | TGI (NCI/ADR-RES ovarian) [µM] | GI50 (LOX IMVI melanoma) [µM] | GI50 (MCF7 breast) [µM] | GI50 (NCI-H460 lung) [µM] | GI50 (NCI/ADR-RES ovarian) [µM] | GI50 (SK-MEL-5 melanoma) [µM] | GI50 (U251 CNS) [µM] | GI50 (UACC-62 melanoma) [µM] | GI50 (UO-31 renal) [µM]
CC(=O)CC(=O)/C=C/c1cccs1 | 72.5 | > 100 | > 100 | > 100 | > 100 | > 100 | > 100 | > 100 |  |  |  |  |  |  |  |  |  | 
COc1cc(/C=N\O)nc(-c2ccccn2)c1 | > 35.5 | > 100 | > 100 |  | > 100 | > 100 | 8.28 | 3.13 | > 100 | > 49.6 |  |  |  |  |  |  |  | 
Nc1ccc(C(=O)N/C(=C\c2cccc([N+](=O)[O-])c2)c2nc3c4c(ccc3[nH]2)C(=O)c2ccccc2C4=O)cc1 |  | > 100 | > 100 | > 100 | > 100 | > 100 | > 100 | 7.64 |  |  |  |  |  |  |  |  |  | 
COc1cc([C@@H]2c3cc4c(cc3C[C@H]3COC(=O)[C@@H]32)OCO4)cc2c1OCO2 |  | > 68.2 | 0.33 | < 0.01 | > 100 | > 100 | > 100 | > 100 | > 100 | < 0.01 |  |  |  |  |  |  |  | 
O=C(c1ccccc1)C1C(C(=O)c2ccccc2)C(c2ccccc2)N(c2ccccc2)C1c1ccccc1 (stereo not given) | > 100 | > 100 | > 100 | > 100 |  | > 100 | > 100 | > 100 | > 100 | > 100 |  |  |  |  |  |  |  | 
COc1ccc2nc3cccc(C(=O)NCCN(C)C)c3nc2c1 | 4.89 | 2.45 |  |  | > 28 | 11.3 |  | > 100 |  |  |  |  |  |  |  |  |  | 
C[N+](C)(C)CC1CCCC/C1=N\O (stereo not given) | > 100 | > 100 | > 100 |  | > 100 | > 100 | > 100 | > 100 |  |  |  |  |  |  |  |  |  | 
OCC(O)C(OC1OC(CO)C(O)C(O)C1O)c1nn(-c2ccccc2)c2nc3cc(Cl)ccc3nc12 (stereo not given) |  | > 100 | > 100 |  | > 100 | > 100 | > 100 | > 100 |  |  |  |  |  |  |  |  |  | 
Cc1ncc([N+](=O)[O-])n1CCNC(=O)CCCCCn1ccnc1[N+](=O)[O-] | > 100 |  | > 100 | > 100 | > 100 | > 100 | > 100 | > 100 | > 100 | > 100 |  |  |  |  |  |  |  | 
Cc1cc(S(=O)(=O)Nc2nc3cc(Cl)ccc3o2)c(SCc2ccccc2)cc1Cl |  | 48.9 | 58.5 | 32 |  | 37.1 | 41.3 | 48.5 | 60.5 | 66.2 | 21.4 | 24.9 | 21.7 | 28.5 | 17.1 | 19.2 | 19.2 | 22.4
Nc1c(-c2nc3ccccc3[nH]2)sc(=S)n1-c1ccc(Cl)cc1 | > 100 | 50.5 |  | 67.6 | 56.9 | 53.9 | 48.4 | 55.7 |  |  |  |  |  |  |  |  |  | 
NS(=O)(=O)c1ccc(NC(=O)COC(=O)c2cccc3c(=O)c4ccccc4[nH]c23)cc1 | > 100 | 43 | > 100 | > 100 | 43.3 | 28.1 | 34.7 | > 87 |  |  |  |  |  |  |  |  |  | 
